Results reported in patent publication US8486991B2, “Enantiomerically pure phosphoindoles as HIV inhibitors” (Idenix Pharmaceuticals, Inc., priority 2006, dated 2013).
pIC50: −log10 of the molar value.

Legend:
[1] = In vitro half-life in liver microsomes, monkey; format: in vitro ADME; settings: microsomes, up to one hour, n=1
Method: (§1) In vitro metabolism was assessed using liver microsomes for all species. Compounds were incubated at 1 μM with liver microsomes for up to one hour. Reported half-lives greater than the total incubation time are extrapolated values. Extracts were assayed for disappearance of parent compound by LC-MS/MS detection.
(§2) Data represents one independent experiment conducted.

[2] = In vitro half-life in liver microsomes, human; format: in vitro ADME; settings: microsomes, up to one hour, longer half-lives are extrapolated, n=1
Method: as §1, §2

[3] = In vitro half-life in liver microsomes, dog; format: in vitro ADME; settings: microsomes, up to one hour, longer half-lives are extrapolated, n=1
Method: as §1, §2

CYP3A4 = CYP3A4 (Homo sapiens, UniProt P08684); assay: Recombinant CYP450 inhibition, fluorometric, CYP3A4; format: in vitro ADME; parameters: from tissue; host or cells: pooled human liver microsomes
Method: (§3) Compounds were assayed using recombinant human microsomal proteins with fluorometric substrates. Signal was measured with a Fusion plate reader utilizing the appropriate excitation and emission wavelength set to detect the specific metabolite: […]

[4] = In vitro half-life in liver microsomes, rat; format: in vitro ADME; settings: microsomes, up to one hour, longer half-lives are extrapolated, n=1
Method: as §1, §2

CYP2C9 = CYP2C9 (Homo sapiens, UniProt P11712); assay: Recombinant CYP450 inhibition, Luciferin-H, CYP2C9; format: in vitro ADME; parameters: from tissue; host or cells: pooled human liver microsomes; settings: highest concentration tested 10 μM
Method: CYP2C9 inhibition was performed by incubating a luminogenic CYP450 substrate Luciferin-H with CYP2C9 and an NADPH regeneration system. Luminescence measured using a Fusion plate reader.

CYP2D6 = CYP2D6 (Homo sapiens, UniProt P10635); assay: Recombinant CYP450 inhibition, fluorometric, CYP2D6; format: in vitro ADME; parameters: from tissue; host or cells: pooled human liver microsomes; settings: recombinant enzyme, read-out: percentage of inhibition at the highest concentration tested, CYP2D6
Method: as §3

[5] = test system: CYP3A4 (activation of PXR in DPX2 cells); assay: CYP3A4 induction screen in DPX2 cells; format: cell-based, human; settings: extent compared with rifampicine, mifepristone, androstanol
Excerpt: The potential for in vitro induction of CYP3A4 was screened in DPX2 cells. The DPX2 cell line is a derivative of a human hepatocellular carcinoma cell line (HepG2) transformed with the human pregnane x receptor (PXR) and a reporter gene vector containing the enhancer region of CYP3A4. The potential for in vitro induction of CYP1A2 was screened in CYP1A2-DRE cells. The CYP1A2-DRE cell line is a stably transformed HepG2 cells with dioxin response elements (DRE) and reporter gene containing CYP1A2 promoter elements. The extent of CYP3A4 induction was determined by comparing the activation of PXR obtained with test article to that obtained with rifampicine (potent inducer), mifepristone (moderate inducer) and androstanol (weak inducer). The extent of CYP1A2 induction was determined by comparing the activation of the aryl hydrocarbon receptor (AhR) obtained with test article to that obtained with TCDD (potent inducer), omeprazole (moderate inducer), and 2-acetylaminofluorene (weak inducer).

CYP3A4, sequence (P08684 whole entry, the tested form may be a part): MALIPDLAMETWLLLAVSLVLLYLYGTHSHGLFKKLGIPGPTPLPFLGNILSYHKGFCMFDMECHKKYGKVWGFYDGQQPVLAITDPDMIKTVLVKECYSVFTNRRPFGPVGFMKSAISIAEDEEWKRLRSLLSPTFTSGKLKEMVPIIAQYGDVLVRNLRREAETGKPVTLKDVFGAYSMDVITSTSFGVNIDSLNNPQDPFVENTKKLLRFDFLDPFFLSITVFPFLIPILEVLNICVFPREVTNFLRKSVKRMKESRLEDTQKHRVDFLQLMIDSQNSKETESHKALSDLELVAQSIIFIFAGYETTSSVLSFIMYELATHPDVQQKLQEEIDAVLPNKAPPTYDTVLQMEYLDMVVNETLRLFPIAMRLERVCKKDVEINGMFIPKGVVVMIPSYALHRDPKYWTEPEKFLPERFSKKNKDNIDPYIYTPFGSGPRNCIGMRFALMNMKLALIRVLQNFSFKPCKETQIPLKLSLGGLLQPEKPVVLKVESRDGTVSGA
CYP2D6, sequence (P10635 whole entry): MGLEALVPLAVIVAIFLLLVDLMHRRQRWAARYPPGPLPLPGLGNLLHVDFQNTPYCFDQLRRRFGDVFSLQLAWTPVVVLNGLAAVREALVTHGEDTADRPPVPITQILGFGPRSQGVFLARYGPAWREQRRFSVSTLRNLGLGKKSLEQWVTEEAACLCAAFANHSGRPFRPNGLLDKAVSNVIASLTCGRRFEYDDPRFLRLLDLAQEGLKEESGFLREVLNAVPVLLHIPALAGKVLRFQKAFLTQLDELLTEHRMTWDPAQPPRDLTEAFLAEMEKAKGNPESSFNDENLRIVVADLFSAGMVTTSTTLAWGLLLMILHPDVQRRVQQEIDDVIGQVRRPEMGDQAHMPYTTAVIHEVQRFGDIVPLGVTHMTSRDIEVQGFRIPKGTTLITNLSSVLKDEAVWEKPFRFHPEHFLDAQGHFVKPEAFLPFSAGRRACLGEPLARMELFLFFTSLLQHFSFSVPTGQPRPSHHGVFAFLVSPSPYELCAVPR
CYP2C9, sequence (P11712 whole entry, the tested form may be a part): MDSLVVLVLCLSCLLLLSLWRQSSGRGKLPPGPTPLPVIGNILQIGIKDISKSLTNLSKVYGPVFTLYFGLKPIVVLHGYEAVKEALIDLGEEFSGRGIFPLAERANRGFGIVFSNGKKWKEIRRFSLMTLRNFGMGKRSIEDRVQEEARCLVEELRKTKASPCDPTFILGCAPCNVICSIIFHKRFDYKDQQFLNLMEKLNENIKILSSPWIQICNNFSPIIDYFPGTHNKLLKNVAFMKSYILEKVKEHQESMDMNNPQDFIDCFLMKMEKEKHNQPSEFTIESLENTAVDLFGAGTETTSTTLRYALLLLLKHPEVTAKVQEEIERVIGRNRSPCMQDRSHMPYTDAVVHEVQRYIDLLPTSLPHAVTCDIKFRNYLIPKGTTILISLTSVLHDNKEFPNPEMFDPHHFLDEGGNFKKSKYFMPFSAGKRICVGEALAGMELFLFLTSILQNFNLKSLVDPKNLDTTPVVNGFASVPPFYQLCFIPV

Row | SMILES | half-life at 1 μM [1] [h] | half-life at 1 μM [2] [h] | half-life at 1 μM [3] [h] | pIC50 (CYP3A4) | half-life at 1 μM [4] [h] | pIC50 (CYP2C9) | inhibition at 10 µM (CYP2D6) [%] | Induction, DPX2 (CYP3A4) [5]
1 | COP(=O)(c1cc(C)cc(/C=C/C#N)c1)c1c(C(N)=O)[nH]c2ccc(Cl)c(F)c12 (racemic) [rac (I + II), 5-chloro-4-fluoro-3-[methyl 3-((E)-2-cyanovinyl)-5-methylphenyl]phosphinoyl-1H-indole-2-carboxamide] | 0.307 | 1.92 | 4.78 | 5.79 | 2.43 |  |  | 
2 | COP(=O)(c1cc(C)cc(/C=C/C#N)c1)c1c(C(N)=O)[nH]c2ccc(Cl)cc12 (racemic) [rac (III + IV), 5-chloro-3-[methyl 3-((E)-2-cyanovinyl)-5-methylphenyl]phosphinoyl-1H-indole-2-carboxamide] | 0.272 | 1.52 | 4.28 | 5.64 | 1.75 | 5.22 | 16 to 23 | Moderate (n = 1)
